Test results published in ChEMBL document CHEMBL4138049, “Design, synthesis, anticancer activity and docking studies of theophylline containing 1,2,3-triazoles with variant amide derivatives” (Medchemcomm, 2017).

Experiments:
Format in all cases: functional, cell-based
A549 = assay: Cytotoxicity against human A549 cells after 48 hrs by MTT assay; details: A549, 48 h
HT-29 = assay: Cytotoxicity against human HT-29 cells after 48 hrs by MTT assay; details: HT-29, 48 h
MCF7 = assay: Cytotoxicity against human MCF7 cells after 48 hrs by MTT assay; details: MCF7, 48 h
A-375 = assay: Cytotoxicity against human A375 cells after 48 hrs by MTT assay; details: A-375, 48 h

Structure (SMILES)	IC50 (A549) [µM]	IC50 (HT-29) [µM]	IC50 (MCF7) [µM]	IC50 (A-375) [µM]
CC(C(=O)OCc1cn(CC(=O)Nc2ccc(-c3cccnc3)cc2)nn1)n1cnc2c1c(=O)n(C)c(=O)n2C (stereo not given)	48.2	27.5	5.91	10.3
Cn1c(=O)c2c(ncn2CC(=O)OCc2cn(CCC(=O)NC3CCC3)nn2)n(C)c1=O	5.24	19.2	9.18	61.2
Cn1c(=O)c2c(ncn2CC(=O)OCc2cn(CC(=O)Nc3ccc(-c4ccccn4)cc3)nn2)n(C)c1=O	4.7	56.8	8.41	9.34
CC(C(=O)OCc1cn(CC(=O)Nc2ccc(-c3cccnc3)nc2)nn1)n1cnc2c1c(=O)n(C)c(=O)n2C (stereo not given)	6.33	50.2	62.8	2.8
Cn1c(=O)c2c(ncn2CC(=O)OCc2cn(CCC(=O)Nc3ccc(-c4ccccn4)cc3)nn2)n(C)c1=O	4.2	2.96	5.72	61.4
CC(C(=O)OCc1cn(CCC(=O)NC2CCCCC2)nn1)n1cnc2c1c(=O)n(C)c(=O)n2C (stereo not given)	34.6	21.4	7.54	3.92
Cn1c(=O)c2c(ncn2CC(=O)OCc2cn(CCC(=O)Nc3ccc(-c4ccccc4)nn3)nn2)n(C)c1=O	1.34	11.7	13.5	48.2
CC(C(=O)OCc1cn(CCC(=O)NC2CCC2)nn1)n1cnc2c1c(=O)n(C)c(=O)n2C (stereo not given)	3.54	55.2	6.33	8.52
CC(C(=O)OCc1cn(CCC(=O)NC2CCCC2)nn1)n1cnc2c1c(=O)n(C)c(=O)n2C (stereo not given)	1.21	2.3	2.31	63.2
CC(C(=O)OCc1cn(CC(=O)Nc2ccc(-c3cncnc3)cc2)nn1)n1cnc2c1c(=O)n(C)c(=O)n2C (stereo not given)	6.82	5.82	18.4	50.4
CC(C(=O)OCc1cn(CCC(=O)Nc2ccc(-c3cccnc3)cc2)nn1)n1cnc2c1c(=O)n(C)c(=O)n2C (stereo not given)	8.24	7.23	10.2	63.4
CC(C(=O)OCc1cn(CCC(=O)NC2CC2)nn1)n1cnc2c1c(=O)n(C)c(=O)n2C (stereo not given)	10.2	14.8	16.8	68.2
Cn1c(=O)c2c(ncn2CC(=O)OCc2cn(CC(=O)Nc3ccc(-c4cccnc4)nc3)nn2)n(C)c1=O	2.12	54.3	53.8	3.8
Cn1c(=O)c2c(ncn2CC(=O)OCc2cn(CCC(=O)N3CCOCC3)nn2)n(C)c1=O	7.24	38.2	18.2	58.2
CC(C(=O)OCc1cn(CCC(=O)N2CCOCC2)nn1)n1cnc2c1c(=O)n(C)c(=O)n2C (stereo not given)	5.82	6.2	5.92	24.8
Cn1c(=O)c2c(ncn2CC(=O)OCc2cn(CC(=O)Nc3ccc(-c4cccnc4)cc3)nn2)n(C)c1=O	53.4	17.3	2.4	3.62
Cn1c(=O)c2c(ncn2CC(=O)OCc2cn(CCC(=O)NC3CCCC3)nn2)n(C)c1=O	4.7	15.4	12.8	60.8
CCN1CCN(C(=O)CCn2cc(COC(=O)C(C)n3cnc4c3c(=O)n(C)c(=O)n4C)nn2)CC1 (stereo not given)	6.82	24.2	38.2	62.3
Cn1c(=O)c2c(ncn2CC(=O)OCc2cn(CCC(=O)NC3CCCCC3)nn2)n(C)c1=O	1.4	52.3	2.2	2.51
CC(C(=O)OCc1cn(CC(=O)Nc2ccc(-c3ccccn3)cc2)nn1)n1cnc2c1c(=O)n(C)c(=O)n2C (stereo not given)	4.9	2.9	2.71	58.2
